Consider one molecule from PMC10590419, “Structural and mechanistic insights into the inhibition of respiratory syncytial virus polymerase by a non-nucleoside inhibitor” (Communications Biology, 2023).

The target in the experiment is T1, Human DNA polymerase gamma (Homo sapiens, UniProt P54098).
T1 construct: purchased Abcam
T1 sequence (P54098 1-1239): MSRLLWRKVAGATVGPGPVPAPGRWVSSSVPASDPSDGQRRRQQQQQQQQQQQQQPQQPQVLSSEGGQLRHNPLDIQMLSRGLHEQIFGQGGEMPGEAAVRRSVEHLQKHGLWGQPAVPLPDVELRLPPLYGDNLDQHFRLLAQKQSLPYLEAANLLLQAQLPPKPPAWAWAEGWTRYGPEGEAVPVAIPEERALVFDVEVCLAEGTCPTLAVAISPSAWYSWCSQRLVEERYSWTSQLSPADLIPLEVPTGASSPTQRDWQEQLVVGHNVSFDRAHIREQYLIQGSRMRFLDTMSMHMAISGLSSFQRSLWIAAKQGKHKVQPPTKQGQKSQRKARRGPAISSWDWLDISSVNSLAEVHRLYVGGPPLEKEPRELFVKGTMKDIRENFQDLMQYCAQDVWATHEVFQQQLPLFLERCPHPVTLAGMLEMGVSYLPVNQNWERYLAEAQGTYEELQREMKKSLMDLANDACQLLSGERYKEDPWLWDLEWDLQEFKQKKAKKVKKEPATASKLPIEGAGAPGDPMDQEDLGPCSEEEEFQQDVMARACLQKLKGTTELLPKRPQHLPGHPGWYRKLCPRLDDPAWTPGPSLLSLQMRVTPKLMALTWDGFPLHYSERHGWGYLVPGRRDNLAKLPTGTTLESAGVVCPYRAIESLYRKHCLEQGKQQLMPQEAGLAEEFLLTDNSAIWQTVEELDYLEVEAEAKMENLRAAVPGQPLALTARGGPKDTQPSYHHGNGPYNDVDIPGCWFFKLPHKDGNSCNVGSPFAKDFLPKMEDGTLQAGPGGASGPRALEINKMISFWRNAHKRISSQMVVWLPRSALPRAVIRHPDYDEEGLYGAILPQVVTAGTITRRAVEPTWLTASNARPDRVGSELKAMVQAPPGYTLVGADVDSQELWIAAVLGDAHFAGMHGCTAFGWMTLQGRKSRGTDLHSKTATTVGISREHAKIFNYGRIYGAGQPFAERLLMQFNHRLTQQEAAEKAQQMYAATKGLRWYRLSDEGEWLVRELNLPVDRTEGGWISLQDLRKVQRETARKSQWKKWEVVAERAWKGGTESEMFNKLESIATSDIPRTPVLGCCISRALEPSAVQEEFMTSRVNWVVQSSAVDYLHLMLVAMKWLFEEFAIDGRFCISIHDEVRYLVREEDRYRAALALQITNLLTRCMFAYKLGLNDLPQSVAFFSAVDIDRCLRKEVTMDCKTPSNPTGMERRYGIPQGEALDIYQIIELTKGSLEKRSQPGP
Kind of experiment: DNA-dependent DNA polymerase activity. It is filed as biochemical. The settings on record: DNA Pol γ. Here is the method: to the method described previously 1. A 25 nM solution of RSV MTase-CTD protein or RSV L+P complex was incubated with 0.7 µM or 1.8 µM purified synthetic RNA 5’-Gppp […]
[…] (RSV9) for the MTase-CTD or L+P complex, respectively; 2 µM or 0.17 µM S-adenosyl methionine (SAM) for the MTase-CTD or L–P complex, respectively; and 0.1 µM or 0.8 µM 3H-SAM (Perkin Elmer) for the MTase-CTD or L–P complex, respectively; in 50 mM Tris-HCl pH 8.0. Compounds, previously dissolved in DMSO were added at a final concentration of 50 µM or 200 µM. After 3 h incubation at 30°C, reactions were quenched by a 20-fold dilution in ice cold water. Samples were transferred to DEAE filtermats (Perkin Elmer) using a Filtermat Harvester (Packard Instruments). The RNA-retaining mats were washed twice with 10 mM ammonium formate pH 8.0, twice with water and once with ethanol. They were then soaked with scintillation fluid (Perkin Elmer), and 3H-methyl transfer to the RNA substrates was determined using a Wallac MicroBeta TriLux Liquid Scintillation Counter.
Cellular polymerase assays
DNA-dependant DNA polymerase (DdDp) activity
Human DNA polymerases alpha (CHIMERx) at 5 U/ml, beta (CHIMERx) at 0.5 U/ml and gamma (Abcam) at 0.1 mg/ml were incubated with the tested inhibitors at specified concentrations, and a reaction mix composed of 62 µg/ml activated calf thymus DNA, dGTP (2 µM), dATP (2 µM), dCTP (2 µM), [ 3H]dTTP (0.05 µCi/µl), 0.1 mg/ml BSA and a buffer composed of Tris-HCl pH 8 (50 mM), MgCl 2 (5 mM), KCl (60 mM), and DTT (4 mM.) in a total volume of 50 µl. After 2 hours incubation at 30°C, reaction was terminated by addition of 60 µl of a chilled stop solution composed of 20% (w/v) TCA with 0.5 mM ATP. […] Radioactivity was measured via liquid scintillation counting (MicroScint-20, 40µl) on a TriLux apparatus. […]
The RNA transcription activity of human mitochondrial RNA polymerase (POLRMT) was measured by the incorporation of radioactively labeled nucleotides by POLRMT into acid-insoluble RNA products as described previously 2. […]

For `COc1cc(C(=O)NC[C@](O)(c2cc(C(C)(C)O)c(F)c(-c3ccc(F)cc3)n2)C(F)(F)F)cc2cc(C)nnc12` [JNJ-8003], the IC50 (as a rule, the midpoint of a concentration-inhibition curve) was more than 100 µM.
